Measured values published in patent US12528840B2, “Transcription active complex targeting cancer drug from viral protein sequence” (The Regents of the University of California, priority 2020, dated 2026).

Key:
THP-1 = test: MTT assay, THP-1; assay type: cell-based; settings: THP-1 monocytic leukemia cell line
Method: (§1) FIG. 6. Viral and cellular responses to K-Rta peptide; identification of VGN50. (a) Protein sequence alignment. FIG. 6(A) The effect of VGN50 on various cancer cell types. MTT assays were performed with the indicated cell lines treated with various VGN50 concentrations. The O.D. of mock-treated samples were set as 100%, and O.D. from detergent treated cells were set as 0%. Percentage viability+/−SD was calculated for each treatment (N=3 samples/treatment). FIG. 6(B) Viability assay with flow cytometry. Cell viability was measured in triplicate with live/dead staining and the cell killing effects on cancer cells was compared with normal peripheral blood mononuclear cells (PBMC) from three healthy donors. Results are presented as percentage viability+/−SD deviation (N=3 samples/group).
(§2) As shown in FIG. 6(a), multiple cancer cell lines were used for MTT assay to evaluate cancer cell killing efficacies of the MBK50 peptide at different concentrations (cell variability studies). […] Importantly, human peripheral blood mononuclear cells (PBMCs) from healthy donors were approximately 10-fold less sensitive to MBK-mediated killing compared to myeloid and lymphoid cancer cell lines (e.g., THP-1 and BCBL-1) as assessed by flow cytometry after live/dead staining (FIG. 6(b)). […]

NU-DUL1 cell = test: Cell growth inhibition with deletion peptides; assay type: cell-based
Description: FIG. 7. Cell growth inhibition with deletion peptides identified key amino acid residue.
BCL2 mutations are frequently seen in B-cell lymphoma and the cell types are often refractory to chemotherapy due to anti-apoptotic phenotype. […] In addition, Essential Leucine residue is identified with the deletion peptides.

BC-1 cells = test: SLAM-seq, active transcription of cellular genes; assay type: cell-based; settings: 24 μM, 30 min then 4sU 1 hour, BC-1 (FIG. 9: BCBL-1 and BC1)
Method: FIG. 9. Profiling Peptide targets with Thiol(SH)-linked alkylation for the metabolic sequencing of RNA (SLAM seq). Differences in active transcription in presence of peptide drug was examined. […] Total RNA-sequence performed 24 hours after drug incubation.
Thiol(SH)-linked alkylation for the metabolic sequencing of RNA (SLAM seq), an orthogonal-chemistry-based RNA sequencing technology detects 4-thiouridine (s4U) incorporation in RNA species at single-nucleotide resolution. Using SLAM-seq method, BC-1 cells were incubated with peptide drug and peptide with three amino acid substitute to alanine was used as a control peptide. Peptide drug was incubated in BC-1 cell culture (24 μM) and after 30 min drug incubation, 4sU (300 μM in final concentration) was added into culture media for 1 hour. Total RNA was isolated in the end of 1 hour 4sU incubation and alkylated RNA samples were subjected to SLAM-seq. Samples were duplicated and changed gene expression vs mock-treated cells (P<0.05) was marked in red. […] IGV viewer was used to visualize sequence reads at MYC region (Chr. 8). […] Log 2 fold changes and adjusted P-value of MYC down regulation in both BCBL-1 and BC-1 cells are depicted in underneath of panel.

U937 cell line = test: MTT assay, U937; assay type: cell-based; settings: U973 monocytic leukemia cell line
Method: as §1, §2

CD19+ B cells = test: CD19+ B cell response to sCD40L, live/dead staining; assay type: cell-based; settings: 32 μM, sCD40L 1 μg/ml, 2 days
Method: CD19^+ B cells were isolated with magnetic beads from PBMC of a healthy donor (n=1). Cells were washed and cultured at 1×10^6/ml in a 96 well plate (200 μl/well in triplicates) without or with sCD40L (1 μg/ml) in the presence of MBK50 (16 or 32 μM) or mutant peptide (32 μM) for 2 days. Live cells were determined as shown in FIG. 3 left panel using live/dead-red staining (live cells are gated as red-staining negative population). […] The peptide drug targets actively replicating B-cells that is consistent with MBK50 targeting MYC.

[1] = test system: monocyte-derived dendritic cells; test: Monocyte-derived dendritic cell live/dead staining and culture images; assay type: cell-based, human
Method: FIG. 14. Effect of MBK50 on CD14+ monocytes. FIG. 14(A) A scheme of the experimental procedure. Monocyte-derived dendritic cells were prepared from magnetic beads sorted CD14+ cells (from PBMC of a healthy donor) after culture for 4 days in the presence of GM-CSF+IL-4 (each 50 ng/ml). Cells were washed and cultured at 1×10^6/ml in a 96 well plate (200 μl/well in triplicates) without or with LPS (100 ng/ml), poly I:C (10 μg/ml), or sCD40L (1 μg/ml) in the presence of MBK50 (16 or 32 μM) or mutant peptide (32 μM) for 2 days. Live cells were determined using live/dead staining followed by flow cytometry analysis. FIG. 14(B) A representative flow profile with the gating strategy for live cells is shown. FIG. 14(C) Averages percentage of live cells for each culture condition are shown. *p<0.05, **p<0.01, ***p<0.001, ****p<0.0001
FIG. 15. Representative images of monocyte derived dendritic cells (MDCs) from two human healthy donors after treatment with MBK50, mutant peptide, or PBS for two days in U-bottom 96 well culture. The diameter of the ring approximately corresponds to the cell volume/numbers in each well.
Similar experiments were also performed with monocyte-derived dendritic cells as a model of human dendritic cells. […] Live cells were determined as shown above using live/dead staining.

## LSSILQGLYQLDT [MBK50]
THP-1
  sensitivity to cell killing: sensitive
NU-DUL1 cell
  activity on BCL2 negative lymphoma cell lines: still works
BC-1 cells; listed as Wt-peptide
  cellular gene expression (active transcription): inhibited multiple cellular gene expression
BC-1 cells; listed as peptide drug
  cellular gene expression (active transcription): strongly inhibited active transcription
U937 cell line
  sensitivity to cell killing: sensitive
CD19+ B cells
  live cell %: reduced
  total cell numbers: increased
[1]; 16 or 32 μM, 2 days, PBS, LPS, sCD40L conditions, vs control peptide or PBS
  percentage of live cells: significantly reduced
[1]; two days, U-bottom 96 well culture
  appearance of MDCs in culture: not clumped and were more spread and adhesive
